According to patent US11952330B2, “Antibiotic ammonium compounds and methods for the treatment of bacterial infections” (priority 2019, dated 2024):

What was measured:
S. aureus = assay: MIC by broth dilution, S. aureus; type: cell-based; details: Staphylococcus aureus; Mueller-Hinton broth, overnight 37° C.; Table 1; read-out: MIC (μg/mL) S. aureus
Experimental: (§1) The antibacterial efficacy of the ammonium compounds was assessed. Minimum inhibitory concentrations (MICs) were determined by broth dilution method. Dilutions of each compound, ranging from 1 μg/mL to 256 μg/mL (final concentrations) were prepared in Mueller-Hinton broth. Compound dilutions were added to wells of a 96-well plate, with the concentration of the compound increasing 2-fold by row. Each well contained 5×10^5 CFU/ml of target bacterium in a total volume of 100 μl. Plates were incubated overnight at 37° C. The following day, plates were evaluated for a visual change in growth to determine the MIC. The concentration value corresponding to the first row that no longer had visible bacterial growth, as evaluated by turbidity in the wells, was recorded as the MIC. MIC values were representative of at least biological duplicates, each made up of technical triplicates. The antibacterial efficacy of ammonium compounds in the presence of human plasma was assessed. Minimum inhibitory concentrations (MICs) were determined by broth dilution method. Dilutions of each compound, ranging from 1 μg/mL to 256 μg/mL (final concentrations) were prepared in Mueller-Hinton broth. For the plasma containing samples, compound dilutions were made in Mueller-Hinton broth and supplemented with 5% (final %) human plasma (esterases). Compound dilutions were added to wells of a 96-well plate, with the concentration of the compound increasing 2-fold by row. Each well contained 5×10^5 CFU/mL of target bacterium in a total volume of 100 μL. Plates were incubated overnight at 37° C. The following day, plates were evaluated for a visual change in growth to determine the MIC. The concentration value corresponding to the first row that no longer had visible bacterial growth, as evaluated by turbidity in the wells, was recorded as the MIC. MIC values were representative of at least biological duplicates, each made up of technical triplicates.

A. baumannii = assay: MIC by broth dilution, A. baumannii; type: cell-based; details: Acinetobacter baumannii; Mueller-Hinton broth, overnight 37° C.; Table 1; read-out: MIC (μg/mL) A. baumannii
Experimental: as §1

Compound | MIC (S. aureus) [µg/mL] | MIC (A. baumannii) [µg/mL]
CCCCCCCCOc1ccccc1C(=O)Nc1ccc(C(=O)OCCC[N+](C)(CC)CC)cc1.[I-] [Compound 45, N,N-Diethyl-N-methyl-3-((4-(2-(octyloxy)benzamido)benzoyl)oxy)propan-1-aminium iodide] | 3 to 30 | 3 to 30
CCCCCCCCOc1ccccc1C(=O)Nc1ccc(C(=O)OCCCC[N+](C)(C)C)cc1.[I-] [Compound 46, N,N,N-Trimethyl-4-((4-(2-(octyloxy)benzamido)benzoyl)oxy)butan-1-aminium iodide] | 3 to 30 | > 30
CCCCCCCCOc1ccccc1C(=O)Nc1ccc(C(=O)OCC[N+]2(C)CCCC2)cc1.[Br-] [Compound 52, 1-Methyl-1-(2-((4-(2-(octyloxy)benzamido)benzoyl)oxy)ethyl)pyrrolidin-1-ium bromide] | 3 to 30 | > 30
CCCCCCCCOc1ccccc1C(=O)Nc1ccc(C(=O)OC2CC[N+](C)(CC)CC2)cc1.[Br-] (stereo not drawn) [Compound 53, 1-Ethyl-1-methyl-4-((4-(2-(octyloxy)benzamido)benzoyl)oxy)piperidin-1-ium bromide] | 3 to 30 | > 30
CCCCCCCCOc1ccccc1C(=O)Nc1ccc(C(=O)N2CC[N+](C)(CC)CC2)cc1.[Br-] [Compound 54, 1-Ethyl-1-methyl-4-(4-(2-(octyloxy)benzamido)benzoyl)piperazin-1-ium bromide] | > 30 | > 30
CCCCCCCCOc1ccccc1C(=O)Nc1ccc(C(=O)N(C)CC[N+](C)(CC)CC)cc1.[Br-] [Compound 55, N,N-Diethyl-N-methyl-2-(N-methyl-4-(2-(octyloxy)benzamido)benzamido)ethan-1-aminium bromide] | > 30 | > 30
CCCCCCCCOc1ccccc1C(=O)Nc1ccc(C(=O)OCC[N+]2(CCC)CCCC2)cc1.[Br-] [Compound 56, 1-(2-((4-(2-(Octyloxy)benzamido)benzoyl)oxy)ethyl)-1-propylpyrrolidin-1-ium bromide] | < 3 | 3 to 30
CCCCCCCCOc1ccccc1C(=O)Nc1ccc(C(=O)OC2CC[N+](CC)(CCC)CC2)cc1.[Br-] (stereo not drawn) [Compound 57, 1-Ethyl-4-((4-(2-(octyloxy)benzamido)benzoyl)oxy)-1-propylpiperidin-1-ium bromide] | 3 to 30 | 3 to 30
CCCCCCCCOc1ccccc1C(=O)Nc1ccc(C(=O)N(C)CC[N+](CC)(CC)CCC)cc1.[Br-] [Compound 59, N,N-Diethyl-N-(2-(N-methyl-4-(2-(octyloxy)benzamido)benzamido)ethyl)propan-1-aminium bromide] | 3 to 30 | > 30
CCCCCCCCOc1ccccc1C(=O)Nc1ccc(C(=O)OCC[N+](CC)(CC)CC2CC2)cc1.[Br-] [Compound 60, N-(Cyclopropylmethyl)-N,N-diethyl-2-((4-(2-(octyloxy)benzamido)benzoyl)oxy)-ethan-1-aminium bromide] | 3 to 30 | 3 to 30
CCCCCCCCOc1ccccc1C(=O)Nc1ccc(C(=O)OCC[N+](CC)(CC)CC2CCCC2)cc1.[Br-] [Compound 61, N-(Cyclopentylmethyl)-N,N-diethyl-2-((4-(2-(octyloxy)benzamido)benzoyl)oxy)-ethan-1-aminium bromide] | < 3 | 3 to 30
CCCCCCCCOc1ccccc1C(=O)Nc1ccc(C(=O)OCC[N+](CC)(CC)CC2CCCCC2)cc1.[Br-] [Compound 62, N-(Cyclohexylmethyl)-N,N-diethyl-2-((4-(2-(octyloxy)benzamido)benzoyl)oxy)-ethan-1-aminium bromide] | < 3 | 3 to 30
CCCCCCCCOc1ccccc1C(=O)Nc1ccc(C(=O)OCC[N+](CC)(CC)CCC(C)C)cc1.[Br-] [Compound 63, N,N-Diethyl-3-methyl-N-(2-((4-(2-(octyloxy)benzamido)benzoyl)oxy)ethyl)butan-1-aminium bromide] | < 3 | 3 to 30
CCCCCOc1ccccc1C(=O)Nc1ccc(C(=O)OCC[N+](CC)(CC)CCC)cc1.[Br-] [Compound 64, N,N-Diethyl-N-(2-((4-(2-(pentyloxy)benzamido)benzoyl)oxy)ethyl)propan-1-aminium bromide] | 3 to 30 | > 30
CCCCCOc1ccccc1C(=O)Nc1ccc(C(=O)OCC[N+](CC)(CC)CCCCC)cc1.[Br-] [Compound 65, N,N-Diethyl-N-(2-((4-(2-(pentyloxy)benzamido)benzoyl)oxy)ethyl)pentan-1-aminium bromide] | 3 to 30 | > 30

Second part, the compound after the results:

MIC (S. aureus) [µg/mL] | MIC (A. baumannii) [µg/mL] | Compound
< 3 | > 30 | CCCCCCCCOc1ccccc1C(=O)Nc1ccc(C(=O)OCC[N+](CC)(CC)Cc2ccc(C(F)(F)F)cc2)cc1.[Br-] [Compound 41, N,N-Diethyl-2-((4-(2-(octyloxy)benzamido)benzoyl)oxy)-N-(4-(trifluoromethyl)-benzyl)ethan-1-aminium bromide]
< 3 | 3 to 30 | CCCCCCCCOc1ccccc1C(=O)Nc1ccc(C(=O)OCC[N+](CC)(CC)Cc2cccc(F)c2)cc1.[Br-] [Compound 42, N,N-Diethyl-N-(3-fluorobenzyl)-2-((4-(2-(octyloxy)benzamido)benzoyl)oxy)ethan-1-aminium bromide]
< 3 | 3 to 30 | CCCCCCCCOc1ccccc1C(=O)Nc1ccc(C(=O)OCC[N+](CC)(CC)Cc2cccc(F)c2F)cc1.[Br-] [Compound 43, N,N-Diethyl-N-(2,3-difluorobenzyl)-2-((4-(2-(octyloxy)benzamido)benzoyl)oxy)-ethan-1-aminium bromide]
< 3 | 3 to 30 | CCCCCCCCOc1ccccc1C(=O)Nc1ccc(C(=O)OCC[N+](CC)(CC)CCCCc2ccccc2)cc1.[Br-] [Compound 44, N,N-Diethyl-N-(2-((4-(2-(octyloxy)benzamido)benzoyl)oxy)ethyl)-4-phenylbutan-1-aminium bromide]
< 3 | 3 to 30 | CCCCCCCCOc1ccccc1C(=O)Nc1ccc(C(=O)OCC[N+](CC)(CC)CCC(C)(C)C)cc1.[Br-] [Compound 47, N,N-Diethyl-3,3-dimethyl-N-(2-((4-(2-(octyloxy)benzamido)benzoyl)oxy)ethyl)-butan-1-aminium bromide]
< 3 | > 30 | CCCCCCCCCC[N+](CC)(CC)CCOC(=O)c1ccc(NC(=O)c2ccccc2OCCCCCCCC)cc1.[Br-] [Compound 48, N,N-Diethyl-N-(2-((4-(2-(octyloxy)benzamido)benzoyl)oxy)ethyl)decan-1-aminium bromide]
< 3 | > 30 | CCCCCCCCCCC[N+](CC)(CC)CCOC(=O)c1ccc(NC(=O)c2ccccc2OCCCCCCCC)cc1.[Br-] [Compound 49, N,N-Diethyl-N-(2-((4-(2-(octyloxy)benzamido)benzoyl)oxy)ethyl)undecan-1-aminium bromide]
< 3 | 3 to 30 | CCCCCCCCOc1ccccc1C(=O)Nc1ccc(C(=O)OCC[N+](CC)(CC)Cc2cccc(OC)c2)cc1.[Br-] [Compound 50, N,N-Diethyl-N-(3-methoxybenzyl)-2-((4-(2-(octyloxy)benzamido)benzoyl)oxy)-ethan-1-aminium bromide]
< 3 | > 30 | CCCCCCCCOc1ccccc1C(=O)Nc1ccc(C(=O)OCC[N+](CC)(CC)Cc2ccc(C(=O)OC)cc2)cc1.[Br-] [Compound 51, N,N-Diethyl-N-(4-(methoxycarbonyl)benzyl)-2-((4-(2-(octyloxy)benzamido)-benzoyl)oxy)ethan-1-aminium bromide]
